Test results from US20220218671A1 (BOEHRINGER INGELHEIM VETMEDICA GMBH, priority 2019, published 2022).

Columns and labels:
[1] = tested on: client-owned dogs with persistent pathologic renal proteinuria due to CKD; assay: Prospective, block-randomized, double-blind clinical trial of telmisartan versus enalapril; UPC measurement (phases I-III); format: in vivo, dog; conditions: for Average of UPC change day 30 / Average of UPC change day 60 / Average of UPC change day 90: change from baseline; for Average of UPC change day 30: day 30, all dogs; for Average of UPC change day 60: day 60, all dogs; for Average of UPC change day 60 / Average of UPC change day 90: up-titration allowed; for Average of UPC change day 90: day 90, all dogs; for proportion of dogs that experienced 50% reduction in UPC at day 30: telmisartan 1 mg/kg PO q 24 h, enalapril 0.5 mg/kg PO q 12 h, 16/20 versus 5/17 dogs, P=0.003; for Average of UPC change in dogs with added drug at Day 90, day 120: the other drug additionally administered between day 90 and day 120; for Average of percent UPC change day 30 / Average of percent UPC change day 60 / Average of percent UPC change day 90 / Average of percent UPC change day 120: percent change from baseline; for Average of percent UPC change day 120: the other drug (telmisartan or enalapril) additionally administered between day 90 and day 120
Excerpt: Experimental Methods and Design. A prospective, block-randomized, double-blind clinical trial has been carried out. Fifty-four client-owned dogs with persistent pathologic renal proteinuria have been recruited over a 2-year period.
Animals. Azotemic and non-azotemic dogs (N=54) with hypertensive and non-hypertensive CKD have been recruited prospectively from patients presented to the hospital. Dogs included as cases will have confirmed persistent pathologic renal proteinuria due to CKD; in order to be classified as such, fulfillment of the criteria described below will be required.
Inclusion criteria. […] Abdominal ultrasound findings consistent with CKD (bilaterally small, irregular kidneys) and absence of renal neoplasia have also been documented.
Exclusion criteria. […] Dogs with suspected or confirmed hyper-adrenocorticism and diabetes mellitus have been included if their disease is considered well controlled with medical therapy.
Patient grouping for block randomization: Once included in the study and based on the presence/degree of azotemia, dogs have been grouped according to the International Renal Interest Society (IRIS) classification scheme for CKD. Those classified as IRIS stages 2-4 (serum creatinine ≥1.4 mg/dL with inappropriately dilute urine [USG<1.030]) have been considered azotemic (AZ), and those classified as IRIS stage 1 (creatinine <1.4 mg/dL) have been considered non-azotemic (non-AZ). Within each of these two groups, dogs will then be stratified according to IRIS recommendations for arterial pressure (AP) substaging. According to this scheme, dogs with persistent average indirect arterial systolic BP<150 mm Hg will be classified as AP0 (minimal risk for target organ damage). Those with persistent average indirect arterial systolic BP150 mm Hg have been classified as AP1-3 (at risk for target organ damage). Four groups will thus be identified:
Baseline. On inclusion (day 0), all owners have been required to read/sign a form consenting to their pets' participation in the study. The following baseline data have been collected for each case: full physical examination (performed by one of the study investigators), fundic examination, blood pressure measurement, serum chemistry panel, urinalysis, abdominal ultrasound, UPC and urine culture. The results of screening tests, if performed within 2 weeks of inclusion in the study, may be used as baseline information. Baseline UPC has been defined as the average of two measurements, taken 2 weeks apart, prior to enrollment.
ARB/ACEi therapy. […] Owners have been provided with appropriate contact numbers in the event of an emergency.
Antihypertensive/other therapy. For dogs that are classified as AP3 (SBP180 mmHg; 200 mmHg in sighthounds), a calcium channel blocker (CCB; amlodipine, 0.1 mg/kg PO q 24 hours) has been administered contemporaneously. […] All dogs have been started or maintained on a commercially available diet formulated to be low in phosphorus and protein, for at least 1 month prior to enrollment.
Monitoring: The monitoring protocol followed the recommendations of the IRIS Canine GN Study Group Standard Therapy Subgroup. All dogs have been rechecked on day 7, at which time physical examination, SBP, serum creatinine (sCr) and serum potassium (K) have been evaluated. An increase in sCr of >30% compared to baseline or identification of moderate/severe hyperkalemia (serum K>6.5 mmol/L) or systolic hypotension (SBP<120) has prompt the investigator unmasking and removal of the patient from the study. For dogs in which average SBP of approximately 180 mm Hg was reliably identified (i.e. dogs classified as AP3), amlodipine will be up-titrated to 0.1 mg/kg PO BID. Thereafter, dogs classified as AP3 have been rechecked at 7-day intervals to ensure efficacy of therapy with adjustment of antihypertensive therapy.

[2] = tested on: naturally occurring proteinuria; conditions: cited from earlier work
[3] = dogs without added drug at day 90

Structure (SMILES)	Average of UPC change day 30 [1]	Average of UPC change day 60 [1]	Average of UPC change day 90 [1]	proportion of dogs that experienced 50% reduction in UPC at day 30 [1] [%]	Average of UPC change in dogs with added drug at Day 90, day 30 [1]	Average of UPC change in dogs with added drug at Day 90, day 60 [1]	Average of UPC change in dogs with added drug at Day 90, day 90 [1]	Average of UPC change in dogs with added drug at Day 90, day 120 ([1]; day 120)	Average of UPC change in dogs without added drug at Day 90, day 30 [1, 3]	Average of UPC change in dogs without added drug at Day 90, day 60 [1, 3]	Average of UPC change in dogs without added drug at Day 90, day 90 [1, 3]	Average of percent UPC change day 30 [1] [%]	Average of percent UPC change day 60 [1] [%]	Average of percent UPC change day 90 [1] [%]	Average of percent UPC change day 120 ([1]; day 120)	Average of UPC change in dogs without added drug at Day 90, day 120 ([1]; dogs without added drug at day 90, day 120)	subjects experiencing an increase in proteinuria despite therapy ([2]; 3/14 subjects) [%]	subjects with clinically significant (i.e., 50%) reduction in proteinuria ([2]; 9/14 subjects) [%]
CCCc1nc2c(C)cc(-c3nc4ccccc4n3C)cc2n1Cc1ccc(-c2ccccc2C(=O)O)cc1 [Telmisartan, telmisartan]	−2,516	−3.769	−4.341	80	−4.20	−4.83	−4.83	−5.84	−1.82	−2.81	−2.01	−57.01	−65.87	−68.79	−76.70^2%	–	–	–
CCOC(=O)[C@H](CCc1ccccc1)N[C@@H](C)C(=O)N1CCC[C@H]1C(=O)O [Enalapril, enalapril]	−1.075	−1.260	−1.194	29.4	−0.30	−0.79	−1.05	−2.97	−0.71	−1.02	−0.68	−27.34	−37.56	−30.57	−75.14^1%	−0.92	22	64
